Data as given in patent publication US8680013B2, “Growth inhibition of cotton with penoxsulam” (Dow AgroSciences, LLC., priority 2011, dated 2014).
Read-outs that look alike come from different tables or passages of the source.

Tests used:
Format in all cases: in vivo
cotton [1] = details: for Number (Bolls): 52DAAA
Procedure: Evaluation of Postemergence Plant Growth Regulator Activity in the Greenhouse Treatments consisted of the compounds as listed in Table 1. Formulated amounts of penoxsulam (Dow AgroSciences Granite® SC herbicide) were placed in 3-liter bottles and dissolved in a volume of 500 mL of a water solution containing Agri-dex crop oil concentrate in a 1.25% v/v ratio. Compound requirements are based upon a 0.3 L application volume at a rate of 187 liters per hectare (L/ha). Spray solutions of the mixtures were prepared by adding the stock solutions to the appropriate amount of dilution solution to form a 500 mL spray solution with active ingredients in single and two way combinations. Formulated compounds were applied to the plant material via backpack sprayer with XR 11001 nozzles calibrated to deliver 187 L/ha at a spray height of 18 inches ([…] centimeters (cm)) above average plant canopy. The treated and control plants were placed in a greenhouse in a randomized block design on greenhouse carts and watered by […] irrigation to prevent wash-off of the test compounds from leafy tissues. Treatments were rated at 14 to 52 days after application as compared to the untreated control plants. Visual injury ratings were scored on a scale of 0 to 10 where 0 corresponds to no injury and 10 corresponds to complete control.

[2] = tested on: Amaranthus spp, (pigweed); assay: Field trial visual weed control, AMASS; details: 16DAA
Procedure: (§1) One field trial was conducted in field-grown cotton using standard herbicide small plot research methodology (Table 2). Plots were 2 rows wide by 20 ft long with 4 replicates per treatment. The cotton crop was grown using normal cultural practices for fertilization, seeding, watering, flooding and maintenance to ensure good growth of the crop and the weeds.
(§2) All treatments in the field trials were applied using a CO2 backpack sprayer calibrated to apply 187 L/ha spray volume. Commercially available products of penoxsulam and mepiquat chloride were mixed in water at appropriate formulated product rates to achieve the desired rates based on a unit area of application (hectare) to achieve the desired rates as shown. Treatments were sprayed as a postemergence foliar application to cotton at 10-leaf stage application timing. Treatments were rated at 16 and 41 days after the application as compared to the untreated control plants. Visual crop injury ratings were scored on a scale of 0 to 100 where 0 corresponds to no injury and 100 corresponds to complete control. Visual weed control was scored on a scale of 0 to 100 percent where 0 corresponds to no weed control and 100 corresponds to complete control.

[3] = tested on: Solanum nigrum (black nightshade); assay: Field trial visual weed control, SOLNI; details: 16DAA
Procedure: as §1, §2

cotton [4] = assay: Postemergence plant growth regulator activity in the field (cotton); details: for Reduction (height reduction, Cotton) / Maturity (% open bolls, Cotton) / Injury (Cotton): 10-leaf stage
Procedure: Evaluation of Postemergence Plant Growth Regulator Activity in the Field
as §1, §2

Compound: COc1cnc(OC)n2nc(NS(=O)(=O)c3c(OCC(F)F)cccc3C(F)(F)F)nc12 [Penoxsulam, 2-(2,2-difluoroethoxy)-N-(5,8-dimethoxy[1.2.4]triazolo[1,5-c]pyrimidine-2-yl)-6-(trifluoromethyl)benzenesulfonamide]
- Height (cotton [1]; 8.8 gr ai/ha, application A (4 leaf cotton), 14DAAA): 17.6 Cm
- Height (cotton [1]; 8.8 gr ai/ha, application A (4 leaf cotton), 27DAAA): 25.5 Cm
- Height (cotton [1]; 8.8 gr ai/ha, application A (4 leaf cotton), 49DAAA): 36.6 Cm
- Number (Bolls) (cotton [1]; 8.8 gr ai/ha, application A (4 leaf cotton)): 3.2 Bolls
- Height (cotton [1]; 8.8 gr ai/ha, application B (10 leaf cotton, 21 days after A timing), 14DAAA): 28.8 Cm
- Height (cotton [1]; 8.8 gr ai/ha, application B (10 leaf cotton, 21 days after A timing), 27DAAA): 32.7 Cm
- Height (cotton [1]; 8.8 gr ai/ha, application B (10 leaf cotton, 21 days after A timing), 49DAAA): 44 Cm
- Number (Bolls) (cotton [1]; 8.8 gr ai/ha, application B (10 leaf cotton, 21 days after A timing)): 9 Bolls
- Height (cotton [1]; 17.5 gr ai/ha, application A (4 leaf cotton), 14DAAA): 15.7 Cm
- Height (cotton [1]; 17.5 gr ai/ha, application A (4 leaf cotton), 27DAAA): 21.8 Cm
- Height (cotton [1]; 17.5 gr ai/ha, application A (4 leaf cotton), 49DAAA): 33.5 Cm
- Number (Bolls) (cotton [1]; 17.5 gr ai/ha, application A (4 leaf cotton)): 2.2 Bolls
- Height (cotton [1]; 17.5 gr ai/ha, application B (10 leaf cotton, 21 days after A timing), 14DAAA): 27.2 Cm
- Height (cotton [1]; 17.5 gr ai/ha, application B (10 leaf cotton, 21 days after A timing), 27DAAA): 30.4 Cm
- Height (cotton [1]; 17.5 gr ai/ha, application B (10 leaf cotton, 21 days after A timing), 49DAAA): 39.2 Cm
- Number (Bolls) (cotton [1]; 17.5 gr ai/ha, application B (10 leaf cotton, 21 days after A timing)): 8.4 Bolls
- Height (cotton [1]; 35 gr ai/ha, application A (4 leaf cotton), 14DAAA): 15.5 Cm
- Height (cotton [1]; 35 gr ai/ha, application A (4 leaf cotton), 27DAAA): 20.5 Cm
- Height (cotton [1]; 35 gr ai/ha, application A (4 leaf cotton), 49DAAA): 30.1 Cm
- Number (Bolls) (cotton [1]; 35 gr ai/ha, application A (4 leaf cotton)): 2.8 Bolls
- plant growth regulator effect on cotton (summary of Table 1) (cotton [1]; greenhouse): growth regulating activity of penoxsulam on cotton growth and increase in cotton boll production
- Control (AMASS) ([2]; 35 gr ai/ha): 95 % Visual
- Control (AMASS) ([2]; 70 gr ai/ha): 98.8 % Visual
- Control (SOLNI) ([3]; 35 gr ai/ha): 88.8 % Visual
- Control (SOLNI) ([3]; 70 gr ai/ha): 93.8 % Visual
- Reduction (height reduction, Cotton) (cotton [4]; 35 gr ai/ha, 16DAA): 11.3 % Visual
- Maturity (% open bolls, Cotton) (cotton [4]; 35 gr ai/ha, 41DAA): 62.5 % Visual
- Reduction (height reduction, Cotton) (cotton [4]; 35 gr ai/ha, 41DAA): 10 % Visual
- Reduction (height reduction, Cotton) (cotton [4]; 70 gr ai/ha, 16DAA): 9.3 % Visual
- Maturity (% open bolls, Cotton) (cotton [4]; 70 gr ai/ha, 41DAA): 48.8 % Visual
- Reduction (height reduction, Cotton) (cotton [4]; 70 gr ai/ha, 41DAA): 5 % Visual
- plant growth regulator effect on cotton (summary of Table 2) (cotton [4]; field): growth inhibiting activity of penoxsulam, similar to the commercial product mepiquat-chloride, while increasing the maturity of cotton bolls

Compound: C[N+]1(C)CCCCC1 [Mepiquat-chloride]
- Control (AMASS) ([2]; 74 gr ai/ha): 95 % Visual
- Control (SOLNI) ([3]; 74 gr ai/ha): 91.3 % Visual
- Injury (Cotton) (cotton [4]; 74 gr ai/ha, 16DAA): 0 % Visual
- Reduction (height reduction, Cotton) (cotton [4]; 74 gr ai/ha, 16DAA): 11.3 % Visual
- Injury (Cotton) (cotton [4]; 74 gr ai/ha, 41DAA): 5 % Visual
- Maturity (% open bolls, Cotton) (cotton [4]; 74 gr ai/ha, 41DAA): 53.8 % Visual
- Reduction (height reduction, Cotton) (cotton [4]; 74 gr ai/ha, 41DAA): 13.8 % Visual
